Here are results for 20 compounds from PubChem BioAssay AID298 (DTP/NCI, 2004).

The assay deals with MX-1 breast xenograft, intrarenal, nude mice, tumor weight. Put plainly: NCI In Vivo Anticancer Drug Screen. Data for tumor model Human Mammary Carcinoma MX-1 Xenograft (intrarenal inoculation) in NU/NU BALB/C (nude) mice. The conditions noted are these: endpoint: mean tumor weight change, higher = larger tumour. The essentials: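 Antitumor activity is expressed as a T/C ratio. The treated group's tumor size or survival is compared against the vehicle-treated control group in mice bearing transplanted tumors.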
(In xenograft studies the graft and the host belong to different species.)

Setting [1] is: dose: 150.0 mg/kg/injection, schedule: Q04DX003 (sc), vehicle: saline.
Setting [2] is: dose: 300.0 mg/kg/injection, schedule: Q04DX003 (sc), vehicle: saline.
Where [3] appears, read: dose: 100.0 mg/kg/injection, schedule: Q04DX003 (ip), vehicle: saline with Tween-80.

The structures appear in SMILES notation. “And” between values parts separate entries of the source, which are not always exact repeats. Equal values may be shown once. Inconclusive results are not listed.

For `CC(/C=C/C=C/C=C/C=C/C=C/C(O)=C1/C(=O)C(CCC(=O)O)N(C)C1=O)=C\C(C)C(OC1CC(O)C(O)C(C)O1)C(C)C` (stereo unspecified), the T/C runs as follows: (dose: 8.0 mg/kg/injection, schedule: Q04DX003 (ip), vehicle: water) 62 % of control; (dose: 15.88 mg/kg/injection, schedule: Q04DX003 (ip), vehicle: water) 115 % of control; (dose: 16.0 mg/kg/injection, schedule: Q04DX003 (ip), vehicle: water) 57 % of control; (dose: 31.75 mg/kg/injection, schedule: Q04DX003 (ip), vehicle: water) 97 % of control; (dose: 32.0 mg/kg/injection, schedule: Q04DX003 (ip), vehicle: water) 95 % of control; (dose: 62.5 mg/kg/injection, schedule: Q04DX003 (ip), vehicle: water) 63 % of control. The T/C runs as follows: (dose: 64.0 mg/kg/injection, schedule: Q04DX003 (ip), vehicle: water) 58 % of control; (dose: 125.0 mg/kg/injection, schedule: Q04DX003 (ip), vehicle: water) 50 % of control.
In the case of `CNC(=S)C#N`, for the setting “dose: 75.0 mg/kg/injection, schedule: Q04DX003 (ip), vehicle: saline + Tween-80 + alcohol”, the T/C was 51 % of control.
Consider `c1ccc2c(c1)[As]=c1ccccc1=[As]2` (stereo unspecified), for which the T/C by setting is: (dose: 75.0 mg/kg/injection, schedule: Q04DX003 (sc), vehicle: saline) 108 % of control; under setting [1], 87 % of control; under setting [2], 99 % of control.
For the compound `Cc1ccc(S(=O)(=O)NC(=O)OC23COCN2COC3)cc1`, the T/C (dose: 200.0 mg/kg/injection, schedule: Q04DX003 (sc), vehicle: saline with Tween-80) is 123 % of control; the T/C (dose: 800.0 mg/kg/injection, schedule: Q04DX003 (sc), vehicle: saline with Tween-80) was 102 % of control; the T/C (dose: 1600.0 mg/kg/injection, schedule: Q04DX003 (sc), vehicle: saline with Tween-80) was 107 % of control.
Take `C=C1C(O)C2(O)OCC34C(CC5C(C)=CC(=O)C(O)C5(C)C23)OC(=O)C(OC(=O)C/C=C(\C)CCCCC)C14` (stereo unspecified): the T/C is, setting by setting: (dose: 1.5 mg/kg/injection, schedule: Q04DX003 (ip), vehicle: saline + alcohol) 69 % of control; (dose: 3.0 mg/kg/injection, schedule: Q04DX003 (ip), vehicle: saline + alcohol) 87 % of control; (dose: 6.0 mg/kg/injection, schedule: Q04DX003 (ip), vehicle: saline + alcohol) 47 % of control; (dose: 12.0 mg/kg/injection, schedule: Q04DX003 (ip), vehicle: saline + alcohol) 43 % of control.
As to `O=C1CC2(C(=O)N1CN1CCOCC1)c1ccccc1-c1ccccc12`, the T/C (dose: 300.0 mg/kg/injection, schedule: Q04DX003 (ip), vehicle: Klucel (hydroxypropylcellulose) (HPC)) was 97 % of control and the T/C (dose: 600.0 mg/kg/injection, schedule: Q04DX003 (ip), vehicle: Klucel (hydroxypropylcellulose) (HPC)) was 72 % of control.
Regarding `CCn1cnc2c(=S)nc[nH]c21`, the T/C is, setting by setting: under setting [1], 91 % of control; under setting [2], 49 % of control.
In the case of `CNc1nc(NC)nc(NC)n1`, the T/C runs as follows: (dose: 12.5 mg/kg/injection, schedule: Q01DX010 (sc), vehicle: Klucel (hydroxypropylcellulose) (HPC)) 156 % of control; (dose: 25.0 mg/kg/injection, schedule: Q01DX010 (sc), vehicle: Klucel (hydroxypropylcellulose) (HPC)) 152 % of control; (dose: 50.0 mg/kg/injection, schedule: Q01DX010 (sc), vehicle: Klucel (hydroxypropylcellulose) (HPC)) 122 % of control; (dose: 100.0 mg/kg/injection, schedule: Q01DX010 (sc), vehicle: Klucel (hydroxypropylcellulose) (HPC)) 83 % of control.
For the compound `CC[PH+](CC)CC[S-].CC[PH+](CC)CC[S-].[Au+].[Au+]`, the T/C runs as follows: (dose: 40.0 mg/kg/injection, schedule: Q04DX003 (sc), vehicle: Klucel (hydroxypropylcellulose) (HPC)) 87 % of control; (dose: 80.0 mg/kg/injection, schedule: Q04DX003 (sc), vehicle: Klucel (hydroxypropylcellulose) (HPC)) 69 % of control; (dose: 160.0 mg/kg/injection, schedule: Q04DX003 (sc), vehicle: Klucel (hydroxypropylcellulose) (HPC)) 55 % of control; (dose: 320.0 mg/kg/injection, schedule: Q04DX003 (sc), vehicle: Klucel (hydroxypropylcellulose) (HPC)) 80 % of control.
Turning to `COc1cccc2c1C(=O)C1=C(C2=O)c2c(O)cc(CO)cc2C(O)C1O` (stereo unspecified), the T/C was 84 % of control (dose: 6.25 mg/kg/injection, schedule: Q04DX003 (ip), vehicle: other); 102 % of control (dose: 12.5 mg/kg/injection, schedule: Q04DX003 (ip), vehicle: other); 96 % of control (dose: 25.0 mg/kg/injection, schedule: Q04DX003 (ip), vehicle: other).
As for `O=C(O)[C@H](Cc1ccccc1)N1C(=O)c2ccccc2C1=O`, the T/C (dose: 150.0 mg/kg/injection, schedule: Q04DX003 (ip), vehicle: DMSO) is 77 % of control; the T/C (dose: 300.0 mg/kg/injection, schedule: Q04DX003 (ip), vehicle: DMSO) is 60 % of control; the T/C (dose: 600.0 mg/kg/injection, schedule: Q04DX003 (ip), vehicle: DMSO) was 33 % of control.
Turning to `[Cl][Pt][Cl].[NH-]C(CO)C(=O)O` (stereo unspecified), the T/C by setting is: (dose: 12.5 mg/kg/injection, schedule: Q04DX003 (ip), vehicle: water) 92 % of control; (dose: 25.0 mg/kg/injection, schedule: Q04DX003 (ip), vehicle: water) 100 % of control; (dose: 37.5 mg/kg/injection, schedule: Q04DX003 (ip), vehicle: water) 57 % of control; (dose: 50.0 mg/kg/injection, schedule: Q04DX003 (ip), vehicle: water) 100 % of control; (dose: 75.0 mg/kg/injection, schedule: Q04DX003 (ip), vehicle: water) 11 % of control; (dose: 100.0 mg/kg/injection, schedule: Q04DX003 (ip), vehicle: water) 16 % of control.
On to `Cc1nnc2ncccn12`, for which the T/C is 86 % of control (dose: 100.0 mg/kg/injection, schedule: Q04DX003 (sc), vehicle: saline) and 104 % of control (dose: 200.0 mg/kg/injection, schedule: Q04DX003 (sc), vehicle: saline).
Turning to `O=C(Nc1ccccc1CCl)Nc1ccccc1CCl`, the T/C (dose: 1200.0 mg/kg/injection, schedule: Q04DX003 (ip), vehicle: saline with Tween-80) is 9 % of control and 12 % of control and 20 % of control.
`O=C(O)c1cc(C(=O)O)c(C(=O)O)cc1C(=O)O.[NH2-].[NH2-].[NH2-].[NH2-].[Pt+2].[Pt+2]`: the T/C was 81 % of control (dose: 10.0 mg/kg/injection, schedule: Q04DX003 (ip), vehicle: water); 42 % of control (dose: 20.0 mg/kg/injection, schedule: Q04DX003 (ip), vehicle: water); 12 % of control (dose: 40.0 mg/kg/injection, schedule: Q04DX003 (ip), vehicle: water).
For the compound `COc1cc2oc3c(C)c(=O)cc4oc(-c5ccccc5)cc(c2c2c1CCC(c1ccccc1)O2)c43` (stereo unspecified), the T/C is 88 % of control (dose: 7.0 mg/kg/injection, schedule: Q04DX003 (ip), vehicle: Klucel (hydroxypropylcellulose) (HPC)); 82 % of control (dose: 14.0 mg/kg/injection, schedule: Q04DX003 (ip), vehicle: Klucel (hydroxypropylcellulose) (HPC)); 111 % of control (dose: 37.5 mg/kg/injection, schedule: Q04DX003 (ip), vehicle: saline with Tween-80); 107 % of control (dose: 56.0 mg/kg/injection, schedule: Q04DX003 (ip), vehicle: Klucel (hydroxypropylcellulose) (HPC)); 77 % of control (dose: 75.0 mg/kg/injection, schedule: Q04DX003 (ip), vehicle: saline with Tween-80); 117 % of control (dose: 150.0 mg/kg/injection, schedule: Q04DX003 (ip), vehicle: saline with Tween-80). In addition, the T/C (dose: 300.0 mg/kg/injection, schedule: Q04DX003 (ip), vehicle: saline with Tween-80) was 52 % of control.
With `CN(C)c1ccc2c(Nc3ccc(NS(C)(=O)=O)cc3)c3ccc(N(C)C)cc3nc2c1`, the T/C (dose: 100.0 mg/kg/injection, schedule: Q04DX003 (ip), vehicle: Klucel (hydroxypropylcellulose) (HPC)) is 115 % of control and the T/C (dose: 200.0 mg/kg/injection, schedule: Q04DX003 (ip), vehicle: Klucel (hydroxypropylcellulose) (HPC)) was 39 % of control.
As to `COc1ccc(C(C)c2cc3c(cc2OC)OCO3)cc1` (stereo unspecified), the T/C was 88 % of control (dose: 12.5 mg/kg/injection, schedule: Q04DX003 (ip), vehicle: saline with Tween-80); 79 % of control (dose: 25.0 mg/kg/injection, schedule: Q04DX003 (ip), vehicle: saline with Tween-80); 83 % of control (dose: 50.0 mg/kg/injection, schedule: Q04DX003 (ip), vehicle: saline with Tween-80); 53 % of control under setting [3].
For the compound `Cc1ccc2c(c1)C1(SC(C)C(=O)N1c1ccc(Cl)cc1)C(=O)N2` (stereo unspecified), the T/C is 107 % of control under setting [3]; 85 % of control (dose: 200.0 mg/kg/injection, schedule: Q04DX003 (ip), vehicle: saline with Tween-80); 72 % of control (dose: 800.0 mg/kg/injection, schedule: Q04DX003 (ip), vehicle: saline with Tween-80).
Take `C[n+]1c(/C=N/NC(N)=S)ccc2ccccc21`: the T/C (dose: 300.0 mg/kg/injection, schedule: Q04DX003 (sc), vehicle: saline with Tween-80) is 78 % of control.
